The values that follow come from patent US10428080B2, “TBK/IKK inhibitor compounds and uses thereof” (Merck Patent GmbH, priority 2015, dated 2019).

For one test, the target named is T1, TBK1 (Homo sapiens, UniProt Q9UHD2).
T1 sequence (Q9UHD2 1-729): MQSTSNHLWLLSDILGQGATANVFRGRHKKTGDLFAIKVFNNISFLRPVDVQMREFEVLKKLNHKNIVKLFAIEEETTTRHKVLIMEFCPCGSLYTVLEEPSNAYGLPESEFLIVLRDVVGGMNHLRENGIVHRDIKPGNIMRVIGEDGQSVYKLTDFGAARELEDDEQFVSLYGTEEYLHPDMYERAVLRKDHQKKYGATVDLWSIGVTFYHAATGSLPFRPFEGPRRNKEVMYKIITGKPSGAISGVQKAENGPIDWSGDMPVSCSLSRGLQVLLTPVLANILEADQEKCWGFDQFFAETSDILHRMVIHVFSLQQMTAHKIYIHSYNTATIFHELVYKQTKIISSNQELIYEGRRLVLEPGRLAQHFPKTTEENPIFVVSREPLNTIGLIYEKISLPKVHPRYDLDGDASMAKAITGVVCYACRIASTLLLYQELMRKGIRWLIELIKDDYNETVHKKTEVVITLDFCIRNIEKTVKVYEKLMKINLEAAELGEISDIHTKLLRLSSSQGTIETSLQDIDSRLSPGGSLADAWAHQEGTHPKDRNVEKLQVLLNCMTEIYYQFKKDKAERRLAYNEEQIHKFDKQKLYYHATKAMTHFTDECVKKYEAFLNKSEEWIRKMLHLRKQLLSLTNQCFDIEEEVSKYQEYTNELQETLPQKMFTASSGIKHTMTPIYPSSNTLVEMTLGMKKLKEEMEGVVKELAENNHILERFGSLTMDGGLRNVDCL
Kind of test: TBK Biochemical Assay. The settings on record: read-out: TBK1 IC50. Summed up:
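Caliper LabChip mobility-shift readout of substrate and product after 90 min of TBK1 reaction at 25° C and stop-buffer addition. Compounds tested in 1:4 serial dilution over 10 points from 30 uM final at 1% DMSO; staurosporine 10 uM final defines full inhibition.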

The next test deals with T2, IKKε (Homo sapiens, UniProt Q14164).
T2 sequence (Q14164 1-716): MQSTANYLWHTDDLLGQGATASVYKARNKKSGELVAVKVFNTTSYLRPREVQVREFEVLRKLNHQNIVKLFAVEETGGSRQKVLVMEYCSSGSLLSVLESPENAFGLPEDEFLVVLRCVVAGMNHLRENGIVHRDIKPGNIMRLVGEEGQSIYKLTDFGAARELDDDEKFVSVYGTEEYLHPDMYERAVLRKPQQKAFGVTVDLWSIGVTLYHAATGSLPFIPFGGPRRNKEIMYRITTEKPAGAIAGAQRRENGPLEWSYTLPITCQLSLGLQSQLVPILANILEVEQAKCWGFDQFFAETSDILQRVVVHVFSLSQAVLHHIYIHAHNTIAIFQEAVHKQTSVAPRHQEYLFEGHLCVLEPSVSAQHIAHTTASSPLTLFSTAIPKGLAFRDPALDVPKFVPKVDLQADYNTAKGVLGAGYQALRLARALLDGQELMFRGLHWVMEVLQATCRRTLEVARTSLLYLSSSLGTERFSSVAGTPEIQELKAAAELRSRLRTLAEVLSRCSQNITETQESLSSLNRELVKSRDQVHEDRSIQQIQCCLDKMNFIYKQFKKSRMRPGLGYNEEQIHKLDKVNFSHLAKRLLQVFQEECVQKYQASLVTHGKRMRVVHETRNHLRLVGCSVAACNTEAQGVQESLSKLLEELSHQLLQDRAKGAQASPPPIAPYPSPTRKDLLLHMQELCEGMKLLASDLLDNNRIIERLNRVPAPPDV
Kind of test: IKKe Biochemical Assay. As to conditions: read-out: IKKε IC50. A digest of the protocol: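 Activity was measured as mobility-shift separation of phosphorylated from unphosphorylated substrate on a LabChip EZ Reader. Compound was titrated from 30 uM final in 10 points, 1:4 steps, with 1% DMSO, and enzyme plus substrate reacted 90 min at 25° C before stop buffer. Control wells held 10 uM staurosporine.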

Where a name gives a salt, the structure may show the parent alone.

In general, IC50 refers to the concentration at which inhibition is half-maximal.

As for `COc1cc(C(=O)N(C)C)ccc1-c1cc2nccc(-c3ccc(NC4CCOCC4)c(C#N)c3)c2o1` [Compound 226, 4-(7-(3-cyano-4-(tetrahydro-2H-pyran-4-ylamino)phenyl)furo[3,2-b]pyridin-2-yl)-3-methoxy-N,N-dimethylbenzamide], the IC50 at TBK1 and at IKKε was below 100 nM throughout.
`COc1cc(C(=O)N(C)C)ccc1-c1cc2nccc(-c3ccc(N(C)C4CCOCC4)c(C#N)c3)c2o1` [Compound 227, 4-(7-(3-cyano-4-(methyl(tetrahydro-2H-pyran-4-yl)amino)phenyl)furo[3,2-b]pyridin-2-yl)-3-methoxy-N,N-dimethylbenzamide]: the half-inhibitory concentration (IC50) at TBK1 and at IKKε was below 100 nM in each case.
`COc1cc(C(=O)N(C)C)ccc1-c1cc2nccc(-c3ccc(NC4CC(C)OC(C)C4)c(C#N)c3)c2o1` (stereo not shown) [Compound 228, 4-(7-(3-cyano-4-(2,6-dimethyl-tetrahydro-2H-pyran-4-ylamino)phenyl)furo[3,2-b]pyridin-2-yl)-3-methoxy-N,N-dimethylbenzamide]: the half-maximal inhibitory concentration (IC50) on TBK1 is 100 to 1000 nM; at IKKε, below 100 nM.
The corresponding values for `COc1cc(C(=O)N(C)C)ccc1-c1cc2nccc(-c3ccc(OC4CC(C)(C)NC(C)(C)C4)c(C#N)c3)c2o1` [Compound 229, 4-(7-(3-cyano-4-(2,2,6,6-tetramethylpiperidin-4-yloxy)phenyl)furo[3,2-b]pyridin-2-yl)-3-methoxy-N,N-dimethylbenzamide] are 100 to 1000 nM and 100 to 1000 nM.
Taken in the same sequence, the figures for `COc1cc(C(=O)N(C)CCO)ccc1-c1cc2nccc(-c3ccc(NC4CCOCC4)c(C#N)c3)c2o1` [Compound 230, 4-(7-(3-cyano-4-(tetrahydro-2H-pyran-4-ylamino)phenyl)furo[3,2-b]pyridin-2-yl)-N-(2-hydroxyethyl)-3-methoxy-N-methylbenzamide] were below 100 nM and below 100 nM.
The corresponding values for `COc1cc(C(=O)N(C)C)ccc1-c1cc2nccc(-c3ccc(O[C@H]4[C@H](C)COC[C@@H]4C)c(C#N)c3)c2o1` [Compound 232, 4-(7-(3-cyano-4-(3,5-dimethyl-tetrahydro-2H-pyran-4-yloxy)phenyl)furo[3,2-b]pyridin-2-yl)-3-methoxy-N,N-dimethylbenzamide] are below 100 nM and below 100 nM.
Turning to `COc1cc(C(=O)N(C)C)ccc1-c1cc2nccc(-c3ccc(O[C@@H]4[C@H](C)COC[C@@H]4C)c(C#N)c3)c2o1` [Compound 233, 4-(7-(3-cyano-4-(3,5-dimethyl-tetrahydro-2H-pyran-4-yloxy)phenyl)furo[3,2-b]pyridin-2-yl)-3-methoxy-N,N-dimethylbenzamide], the concentration for half-maximal inhibition (IC50) on TBK1 and on IKKε was below 100 nM each time.
As to `COc1cc(C(=O)N(C)C)ccc1-c1cc2nccc(-c3ccc(CN4CCOCC4)c(C#N)c3)c2o1` [Compound 234, 4-(7-(3-cyano-4-(morpholinomethyl)phenyl)furo[3,2-b]pyridin-2-yl)-3-methoxy-N,N-dimethylbenzamide], the half-maximal inhibitory concentration (IC50) on TBK1 and at IKKε was below 100 nM each time.
`COc1cc(C(=O)N(C)C)ccc1-c1cc2nccc(-c3ccc(C(C)(C)N4CCOCC4)c(C#N)c3)c2o1` [Compound 235, 4-(7-(3-cyano-4-(2-morpholinopropan-2-yl)phenyl)furo[3,2-b]pyridin-2-yl)-3-methoxy-N,N-dimethylbenzamide hydrochloride]: the IC50 at TBK1 and at IKKε was 100 to 1000 nM throughout.
On to `COc1cc(C(=O)N(C)C)ccc1-c1cc2nccc(-c3cc(F)c(NC4CCOCC4)c(C#N)c3)c2o1` [Compound 236, 4-(7-(3-cyano-5-fluoro-4-(tetrahydro-2H-pyran-4-ylamino)phenyl)furo[3,2-b]pyridin-2-yl)-3-methoxy-N,N-dimethylbenzamide], for which the half-maximal inhibitory concentration (IC50) at TBK1 and at IKKε was below 100 nM each time.
For `COc1cc(C(=O)N(C)C)ccc1-c1cc2nccc(-c3cc(F)c(N(C)C4CCOCC4)c(C#N)c3)c2o1` [Compound 237, 4-(7-(3-cyano-5-fluoro-4-(methyl(tetrahydro-2H-pyran-4-yl)amino)phenyl)furo[3,2-b]pyridin-2-yl)-3-methoxy-N,N-dimethylbenzamide], the IC50 on TBK1 and at IKKε was below 100 nM throughout.
In the case of `CN(C)C(=O)c1ccc(-c2cc3nccc(-c4ccc(OC5CCOCC5)c(C#N)c4)c3o2)c(F)c1` [Compound 238, 4-(7-(3-cyano-4-(tetrahydro-2H-pyran-4-yloxy)phenyl)furo[3,2-b]pyridin-2-yl)-3-fluoro-N,N-dimethylbenzamide], the half-inhibitory concentration (IC50) at TBK1 and at IKKε was below 100 nM in each case.
Take `CN(C)C(=O)c1ccc(-c2cc3nccc(-c4ccc(OC5CCOCC5)c(C#N)c4)c3o2)c(Cl)c1` [Compound 239, 3-chloro-4-(7-(3-cyano-4-(tetrahydro-2H-pyran-4-yloxy)phenyl)furo[3,2-b]pyridin-2-yl)-N,N-dimethylbenzamide]: the concentration for half-maximal inhibition (IC50) on TBK1 and on IKKε was below 100 nM each time.
For the compound `CN(C)C(=O)c1ccc(-c2cc3nccc(-c4ccc(OC5CCOCC5)c(C#N)c4)c3o2)c(C(F)(F)F)c1` [Compound 240, 4-(7-(3-cyano-4-(tetrahydro-2H-pyran-4-yloxy)phenyl)furo[3,2-b]pyridin-2-yl)-N,N-dimethyl-3-(trifluoromethyl)benzamide], the IC50 on TBK1 and on IKKε was 100 to 1000 nM throughout.
With `CN(C)C(=O)c1ccc(-c2cc3nccc(-c4ccc(OC5CCOCC5)c(C#N)c4)c3o2)c(OC(F)(F)F)c1` [Compound 241, 4-(7-(3-cyano-4-(tetrahydro-2H-pyran-4-yloxy)phenyl)furo[3,2-b]pyridin-2-yl)-N,N-dimethyl-3-(trifluoromethoxy)benzamide], the IC50 at TBK1 and at IKKε was below 100 nM each time.
Consider `CN(C)C(=O)c1ccc(-c2cc3nccc(-c4ccc(OC5CCOCC5)c(C#N)c4)c3o2)nn1` [Compound 242, 6-(7-(3-cyano-4-(tetrahydro-2H-pyran-4-yloxy)phenyl)furo[3,2-b]pyridin-2-yl)-N,N-dimethylpyridazine-3-carboxamide hydrochloride], for which the IC50 at TBK1 and on IKKε was 100 to 1000 nM in each case.
As for `CN(C)C(=O)c1ccc(-c2cc3nccc(-c4ccc(OC5CCOCC5)c(C#N)c4)c3o2)nc1` [Compound 243, 6-(7-(3-cyano-4-(tetrahydro-2H-pyran-4-yloxy)phenyl)furo[3,2-b]pyridin-2-yl)-N,N-dimethylnicotinamide], the IC50 on TBK1 and on IKKε was below 100 nM each time.
As to `CN(C)C(=O)c1ccc(-c2cc3nccc(-c4ccc(NC5CCOCC5)c(C#N)c4)c3o2)nc1` [Compound 244, 6-(7-(3-cyano-4-(tetrahydro-2H-pyran-4-ylamino)phenyl)furo[3,2-b]pyridin-2-yl)-N,N-dimethylnicotinamide], the concentration for half-maximal inhibition (IC50) on TBK1 and on IKKε was 100 to 1000 nM each time.
For the compound `CN(C)C(=O)c1ccc(-c2cc3nccc(-c4cc(F)c(OC5CCOCC5)c(C#N)c4)c3o2)nc1` [Compound 245, 6-(7-(3-cyano-5-fluoro-4-(tetrahydro-2H-pyran-4-yloxy)phenyl)furo[3,2-b]pyridin-2-yl)-N,N-dimethylnicotinamide hydrochloride], the IC50 on TBK1 and at IKKε was 100 to 1000 nM throughout.
As to `CN(C)C(=O)c1ccc(-c2cc3nccc(-c4cc(F)c(NC5CCOCC5)c(C#N)c4)c3o2)nc1` [Compound 246], the IC50 at TBK1 and on IKKε was 100 to 1000 nM each time.
